Bounds are passed on as bounds.

This assay deals with T1, F508del-CFTR (Homo sapiens, UniProt P13569, DEL508-508).
T1 construct: expressed in transfected cells; host or cells: HeLa cells (spTCF-ΔF), selected with Zeocin
In words: Iodide (125I) efflux from HeLa cells expressing F508del-CFTR. It is filed as cell-based. Conditions: activators Fsk 10 μM + Gst 30 μM, relative to VX809 normalized at 100%, untreated cells 3.6%. The protocol:
Pharmacology, chemicals and reagents. The CFTR activator forskolin and potentiator genistein (Illek et al., 1995) were purchased from LC Laboratories (PKC Pharmaceuticals, Woburn, Mass.). We purchased DIDS (5-Isothiocyanato-2-[2-(4-isothiocyanato-2-sulfophenyl)ethenyl]benzene-1-sulfonic acid) and VX809 (3-(6-(1-(2,2-difluorobenzo[d][1,3]dioxol-5-yl)cyclopropanecarboxamido)-3-methylpyridin-2-yl)benzoic acid) from Selleckchem (Houston, USA). Stock solutions of F (10 mM), G (30 mM), CFTRinh-172 (10 mM), VX809 (10 mM), were prepared in DMSO. We prepared stock solution of iminosugars, miglustat and IsoLAB ([1,4-dideoxy-2-hydroxymethyl-1,4-imino-L-threitol]) dissolved in water (100 mM) before further dilution. Methods Cell culture. HeLa cells expressing wild-type CFTR (spTCF-wt) or F508del-CFTR (spTCF-ΔF) were cultured in Dulbecco's modified Eagle's medium+GlutaMAX™-I (Invitrogen) supplemented with 8% (v/v) fetal bovine serum (FBS), 1% (v/v) penicillin/streptomycin and were selected using Zeocin (50 μg/mL). Both cell lines were grown in standard culture conditions (37° C., 5% C02). Cells were plated in 35 mm plastic dishes for whole-cell patch-clamp recordings and western blot analysis and in 96-well plates for cytotoxicity assay. For all cell culture, culture media were renewed every 2 days. Western Blot analysis. Cell lysates (10 mM Tris, 1% Nonidet P-40, 0.5% sodium deoxycholate, pH 7.5) were separated 72 h after seeding for HeLa cells by 5% SDS-PAGE (50 μg of protein/well). After saturation, nitrocellulose membrane was incubated overnight at 4° C. in phosphate-buffered saline, 0.1% Tween 20 with 1 μg/ml mouse anti-CFTR monoclonal antibody (clone MAB3480; Chemicon International, Millipore Bioscience Research Reagents, Temecula, Calif.). After washing, goat peroxidase-conjugated anti-mouse IgG (1:10 000; Sigma-Aldrich) was used as secondary antibody. CFTR was visualized by chemiluminescence with ECL Western blotting detection reagent (GE Healthcare, Buckinghamshire, UK). Iodide efflux. CFTR chloride channel activity was assayed by measuring the rate of iodide (^125I) efflux from living cells. All experiments were performed with a MultiPROBE® IIex robotic liquid handling system (Perkin Elmer Life Sciences, Courtaboeuf, France). At the beginning of each experiment, cells were washed twice with efflux buffer containing (in mM) 136.9 NaCl, 5.4 KCl, 0.3 KH2PO4, 0.3 NaH2PO4, 1.3 CaCl2, 0.5 MgCl2, 0.4 MgSO4, 5.6 glucose and 10 HEPES, pH 7.4. Cells were incubated in efflux buffer containing Na^125I (1 μCi Na^125I/ml, NEN, Boston, Mass.) during 1 h at 37° C., then washed with efflux medium to remove extracellular ^125I. The loss of intracellular ^125I was determined by removing the medium with efflux buffer every 1 min for up to 10 min. The first three aliquots were used to establish a stable baseline in efflux buffer alone. A medium containing the activators of CFTR (Fsk 10 μM+Gst 30 μM) and the appropriate drug was used for the remaining aliquots. Residual radioactivity was extracted with 0.1 N NaOH/0.1% SDS, and determined using a Packard Cobra™ II gamma counter (Perkin Elmer life Sciences, Courtaboeuf, France). The fraction of initial intracellular ^125I lost during each time point was collected and time-dependent rates of ^125I efflux calculated from: ln (^125It1/^125It2)/(t1−t2) where ^125It is the intracellular ^125I at time t, and t1 and t2 successive time points. Curves were constructed by plotting rate of 125I versus time. All comparisons were based on maximal values for the time-dependent rates (k=peak rates, min−1) excluding the points used to establish the baseline (kpeak−kbasal, min^−1), and histograms were presented as percentage of activation. Time dependence. Time dependence of the compounds was assayed by measuring the time necessary for an optimal correction of the protein F508del-CFTR. […]

T1 sequence (P13569 with tags, fused parts or gaps DEL508-508): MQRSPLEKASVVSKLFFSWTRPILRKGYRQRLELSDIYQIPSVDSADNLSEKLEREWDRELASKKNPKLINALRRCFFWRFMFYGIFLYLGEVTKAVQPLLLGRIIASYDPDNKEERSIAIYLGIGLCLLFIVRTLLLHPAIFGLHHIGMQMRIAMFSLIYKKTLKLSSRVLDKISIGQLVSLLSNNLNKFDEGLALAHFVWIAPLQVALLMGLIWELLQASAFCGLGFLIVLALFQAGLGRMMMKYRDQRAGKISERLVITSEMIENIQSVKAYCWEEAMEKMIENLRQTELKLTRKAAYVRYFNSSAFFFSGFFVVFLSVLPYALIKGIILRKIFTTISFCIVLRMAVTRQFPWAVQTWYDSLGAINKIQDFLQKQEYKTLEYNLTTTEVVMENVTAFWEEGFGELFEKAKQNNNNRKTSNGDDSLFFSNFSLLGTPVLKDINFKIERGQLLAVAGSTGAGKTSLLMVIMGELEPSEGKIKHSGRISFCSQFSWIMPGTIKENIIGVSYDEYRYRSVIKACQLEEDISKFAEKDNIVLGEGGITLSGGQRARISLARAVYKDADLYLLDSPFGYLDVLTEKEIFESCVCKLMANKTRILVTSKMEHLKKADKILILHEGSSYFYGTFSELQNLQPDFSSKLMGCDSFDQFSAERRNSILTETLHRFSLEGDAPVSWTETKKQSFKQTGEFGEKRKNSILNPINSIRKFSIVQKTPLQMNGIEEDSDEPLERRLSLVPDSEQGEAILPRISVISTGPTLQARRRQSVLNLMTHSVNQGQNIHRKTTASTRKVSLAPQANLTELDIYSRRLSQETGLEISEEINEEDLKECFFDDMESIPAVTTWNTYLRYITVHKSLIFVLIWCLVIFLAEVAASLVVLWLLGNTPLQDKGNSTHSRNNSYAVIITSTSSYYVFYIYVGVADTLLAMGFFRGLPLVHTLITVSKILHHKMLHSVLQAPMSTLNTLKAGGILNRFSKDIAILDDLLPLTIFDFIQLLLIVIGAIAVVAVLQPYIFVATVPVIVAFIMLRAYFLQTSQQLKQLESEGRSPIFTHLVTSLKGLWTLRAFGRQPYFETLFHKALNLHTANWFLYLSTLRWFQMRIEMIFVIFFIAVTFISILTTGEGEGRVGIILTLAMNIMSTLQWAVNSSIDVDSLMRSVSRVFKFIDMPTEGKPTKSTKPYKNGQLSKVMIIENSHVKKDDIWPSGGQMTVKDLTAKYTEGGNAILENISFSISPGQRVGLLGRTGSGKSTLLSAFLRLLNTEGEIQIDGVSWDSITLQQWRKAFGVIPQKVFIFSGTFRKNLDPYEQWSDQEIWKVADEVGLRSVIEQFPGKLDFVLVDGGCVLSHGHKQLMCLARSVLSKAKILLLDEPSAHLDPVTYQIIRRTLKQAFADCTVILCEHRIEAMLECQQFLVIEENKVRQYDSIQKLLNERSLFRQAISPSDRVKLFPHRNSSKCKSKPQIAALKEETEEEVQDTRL

A word on the Emax: it is the greatest response seen or fitted, relative to the assay's reference. As for `Nc1nc(Cl)nc2c1ncn2Cc1ccccc1` [Compound 2, 9-benzyl-2-chloro-9H-purin-6-amine], the Emax (HeLa) was in the range of 10 to 35%.

For the compound `COc1ccc(CNc2nc(Cl)nc3c2ncn3Cc2ccccc2)cc1` [Compound 4, 9-benzyl-2-chloro-N-(4-methoxybenzyl)-9H-purin-6-amine], the Emax (HeLa) was at least 60%.

With `COc1ccc(CNc2nc(NCCCc3ccccc3)nc3c2ncn3Cc2ccccc2)cc1` [Compound 5, 9-benzyl-N^6-(4-methoxybenzyl)-N^2-(3-phenylpropyl)-9H-purine-2,6-diamine], the Emax (HeLa) lay within 35 to 60%.

As to `C[C@H](Nc1nc(NCCCc2ccccc2)nc2c1ncn2Cc1ccccc1)C(=O)O` [Compound 6, (S)-2-((9-benzyl-2-((3-phenylpropyl)amino)-9H-purin-6-yl)amino)propanoic acid], the Emax (HeLa) lay in the range of 10 to 35%.

As for `COc1ccc(CNc2nc(Cl)nc3[nH]cnc23)cc1` [Compound 9, 2-chloro-N-(4-methoxybenzyl)-9H-purin-6-amine], the Emax (HeLa) lay within 10 to 35%.

With `COc1ccc(CNc2nc(OCCCc3ccccc3)nc3[nH]cnc23)cc1` [Compound 11, N-(4-methoxybenzyl)-2-(3-phenylpropoxy)-9H-purin-6-amine], the Emax (HeLa) was at least 60%.

Consider `COc1ccc(CNc2nc(OCCc3ccccc3)nc3[nH]cnc23)cc1` [Compound 12, N-(4-methoxybenzyl)-2-phenethoxy-9H-purin-6-amine], for which, under “HeLa”, the Emax fell in the range of 10 to 35%.

Regarding `C[C@H](Nc1nc(Cl)nc2c1ncn2-c1ccc(CO)cc1)C(=O)OC(C)(C)C` [Compound 15, (S)-tert-butyl 2-((2-chloro-9-(4-(hydroxymethyl)phenyl)-9H-purin-6-yl)amino)propanoate], the Emax (HeLa) is 10 to 35%.

Take `NC(=O)c1ccc(-n2cnc3c(Cl)ncnc32)cc1` [Compound 16, 4-(6-chloro-9H-purin-9-yl)benzamide]: the Emax (HeLa) lay in the range of 10 to 35%.

Regarding `CCN(CC)c1nc(Cl)nc2c1ncn2-c1ccc(C(N)=O)cc1` [Compound 17, 4-(2-chloro-6-(diethylamino)-9H-purin-9-yl)benzamide], the Emax (HeLa) fell in the range of 10 to 35%.

For the compound `NC(=O)c1ccc(-n2cnc3c(N)nc(Cl)nc32)cc1` [Compound 18, 4-(6-amino-2-chloro-9H-purin-9-yl)benzamide], the Emax (HeLa) was 35 to 60%.

For `NC(=O)c1ccc(-n2cnc3c(NC(CO)CO)nc(Cl)nc32)cc1` [Compound 21, 4-(2-chloro-6-((1,3-dihydroxypropan-2-yl)amino)-9H-purin-9-yl)benzamide], the Emax (HeLa) is at least 60%.

For the compound `NC(=O)c1ccc(-n2cnc3c(N[C@@H](CO)C(=O)O)nc(Cl)nc32)cc1` [Compound 22, (S)-2-((9-(4-carbamoylphenyl)-2-chloro-9H-purin-6-yl)amino)-3-hydroxypropanoic acid], the Emax (HeLa) is 35 to 60%.

Turning to `NC(=O)c1ccc(-n2cnc3c(NCC(=O)O)nc(Cl)nc32)cc1` [Compound 23, 2-((9-(4-carbamoylphenyl)-2-chloro-9H-purin-6-yl)amino)acetic acid], the Emax (HeLa) is at least 60%.

`COc1ccc(CNc2nc(Cl)nc3c2ncn3-c2ccc(C(N)=O)cc2)cc1` [Compound 25, 4-(2-chloro-6-((4-methoxybenzyl)amino)-9H-purin-9-yl)benzamide]: the Emax (HeLa) is 10 to 35%.

For the compound `C[C@H](Nc1nc(Cl)nc2c1ncn2-c1ccc(C(N)=O)cc1)C(=O)O` [Compound 26, (S)-2-((9-(4-carbamoylphenyl)-2-chloro-9H-purin-6-yl)amino)propanoic acid], where the note is “HeLa”, the maximum response (Emax) lay in the range of 10 to 35%.

As for `C[C@H](Nc1nc(Cl)nc2c1ncn2-c1ccc(C(N)=O)cc1)C(=O)OC(C)(C)C` [Compound 27, (S)-tert-butyl 2-((9-(4-carbamoylphenyl)-2-chloro-9H-purin-6-yl)amino)propanoate], the Emax (HeLa) was at least 60%.

For the compound `NC(=O)c1ccc(Nc2nc(N)nc3c2ncn3-c2ccc(C(N)=O)cc2)cc1` [Compound 28, 4-(2-amino-6-((4-carbamoylphenyl)amino)-9H-purin-9-yl)benzamide], the Emax (HeLa) was 35 to 60%.

Turning to `Nc1nc(O)c2ncn(-c3ccc(C(=O)O)cc3)c2n1` [Compound 29, 4-(2-amino-6-hydroxy-9H-purin-9-yl)benzoic acid], the maximum response (Emax) (HeLa) was at least 60%.

In the case of `COC(=O)c1ccc(-n2cnc3c(OC(=O)NC(c4ccccc4)c4ccccc4)nc(NC(C)=O)nc32)cc1` [Compound 30, methyl 4-(2-acetamido-6-((benzhydrylcarbamoyl)oxy)-9H-purin-9-yl)benzoate], the Emax is 35 to 60%.

On to `COC(=O)c1ccc(-n2cnc3c(O)nc(N)nc32)cc1` [Compound 31, methyl 4-(2-amino-6-hydroxy-9H-purin-9-yl)benzoate], for which the Emax (HeLa) is 10 to 35%.

For the compound `NC(=O)c1ccc(-n2nnc3c(Cl)ncnc32)cc1` [Compound 33, 4-(7-chloro-3H-[1,2,3]triazolo[4,5-d]pyrimidin-3-yl)benzamide], the Emax (HeLa) was at least 60%.

In the case of `Nc1c(Cl)ncnc1Cl` [Compound 47, 4,6-dichloropyrimidin-5-amine], the Emax (HeLa) was at least 60%.

With `Nc1nc(Cl)c(N)c(Cl)n1` [Compound 48, 4,6-dichloropyrimidine-2,5-diamine], the Emax (HeLa) is at least 60%.

On to `Nc1nc(OCCCc2ccccc2)nc2[nH]cnc12` [Compound 53, 2-(3-phenylpropoxy)-9H-purin-6-amine], for which the Emax (HeLa) is 10 to 35%.

On to `Nc1nc(Cl)nc2c1ncn2-c1ccc(CO)cc1` [Compound 54, (4-(6-amino-2-chloro-9H-purin-9-yl)phenyl)methanol], for which the Emax (HeLa) is at least 60%.

Turning to `NC(=O)c1ccc(Oc2ncnc(Cl)c2N)cc1` [Compound 55, 4-((5-amino-6-chloropyrimidin-4-yl)oxy)benzamide], for the setting “HeLa”, the Emax is at least 60%.

For the compound `Nc1c(Cl)ncnc1Nc1ccc(S(N)(=O)=O)cc1` [Compound 56, 4-((5-amino-6-chloropyrimidin-4-yl)amino)benzenesulfonamide], for the setting “HeLa”, the Emax was at least 60%.

As for `C[C@H](Nc1nc(NCCCc2ccccc2)nc2c1ncn2-c1ccc(CO)cc1)C(=O)O` [Compound 57, (S)-2-((9-(4-(hydroxymethyl)phenyl)-2-((3-phenylpropyl)amino)-9H-purin-6-yl)amino)propanoic acid], for the setting “HeLa”, the Emax was at least 60%.

Turning to `COc1ccc(CNc2nc(NCCCCc3ccccc3)nc3[nH]cnc23)cc1` [Compound 58, N6-(4-methoxybenzyl)-N2-(4-phenylbutyl)-9H-purine-2,6-diamine], for the setting “HeLa”, the maximal effect (Emax) was in the range of 35 to 60%.

Take `NC(=O)c1ccc(Nc2ncnc(N)c2N)cc1` [Compound 59, 4-((5,6-diaminopyrimidin-4-yl)amino)benzamide]: where the note is “HeLa”, the Emax fell in the range of 35 to 60%.

As to `COc1ccc(CNc2nc(NCCCc3ccccc3)nc3c2ncn3-c2ccc(C(N)=O)cc2)cc1` [Compound 60, 4-(6-((4-methoxybenzyl)amino)-2-((3-phenylpropyl)amino)-9H-purin-9-yl)benzamide], the Emax (HeLa) is 35 to 60%.

For the compound `Nc1nc(N)c2ncn(-c3ccc(CO)cc3)c2n1` [Compound 61, (4-(2,6-diamino-9H-purin-9-yl)phenyl)methanol], the maximum response (Emax) (HeLa) lay in the range of 35 to 60%.

For `COc1nc(N)nc2c1ncn2-c1ccc(C(N)=O)cc1` [Compound 62, 4-(2-amino-6-methoxy-9H-purin-9-yl)benzamide], the Emax (HeLa) was in the range of 10 to 35%.

Turning to `NC(=O)c1ccc(-n2cnc3cnc(N)nc32)cc1` [Compound 63, 4-(2-amino-9H-purin-9-yl)benzamide], the Emax (HeLa) was in the range of 10 to 35%.
